Results reported in patent US9486474B2, “Interstitial therapy for immediate symptom relief and chronic therapy in interstitial cystitis” (THE REGENTS OF THE UNIVERSITY OF CALIFORNIA, priority 2004, dated 2016).

Legend:
IC patients [1] = assay: heparin versus PPS in the intravesical therapeutic solution (preliminary data); assay type: in vivo, human
Text: Data from preliminary studies for one embodiment of an intravesical therapeutic solution can provide immediate temporary relief of the symptoms of urgency and pain in IC patients [Dell and Parsons, Abstract presented at NIDDK/Interstitial Cystitis Association Symposium, Research Insights into Interstitial Cystitis, Alexandria, Va., (Oct. 30-Nov. 1, 2003); Davis, et al. Abstract presented at NIDDK/Interstitial Cystitis Association Symposium, Research Insights into Interstitial Cystitis, Alexandria, Va. (Oct. 30-Nov. 1, 2003); Parsons, Contemp Urol 15: 22-24, 27-28, 31-32, 35 (2003)]. One of the methods of the present invention combines heparin and lidocaine buffered with sodium bicarbonate to pH >8.0 via direct catheter delivery to the bladder, providing immediate and long term pain relief for chronic IC sufferers. In some embodiments, the solution contains 10,000-40,000 units of heparin. In some embodiments, heparin is replaced by 100-200 mg PPS (the contents of an oral capsule dissolved in 10 mL buffered normal saline), 10 mL 1% lidocaine or 16 mL 2% lidocaine, and 3 mL 8.4% sodium bicarbonate (w/v). The solution is instilled into the empty bladder and retained for approximately 30 minutes. The principal difference between this therapeutic solution and other such solutions is the presence of sodium bicarbonate, which dramatically increases the absorption of the lidocaine. […]

IC = settings: oral PPS, after 8 to 12 months of therapy; cited from earlier work
IC patients [2] = settings: intravesical DMSO therapy; cited from earlier work

Row | Molecule | efficacy in the therapeutic solution, heparin compared with PPS (IC patients [1]) | response rate (IC) | IC patients treated who benefit (IC patients [2])
1 | pentosan polysulfate sodium [PPS] | equal efficacy | approximately 70% | –
2 | heparin | equal efficacy | – | –
3 | C[S+](C)[O-] [DMSO, dimethylsulfoxide] | – | – | approximately 50%
